Where two headings read alike, the source gives them in different places.
Experiments:
HCT116 WT cells = test: HCT116 WT cell line proliferation (CellTiter-Glo cell viability, 6 days); type: cell-based; details: HCT116 WT (parent) cells, 6 days of treatment, CellTiter-Glo cell viability, read-out: HCT-116 WT IC50
Summary of the method: (§1)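 Isogenic HCT116 pair (parent and MTAP double-allele knockout) in RPMI 1640 + 10% FBS, exposed 6 days to compound: 8–9-point 1:3 dilutions from 1 or 10 μM top, or 22-point 1:2 dilutions from 10 or 50 μM top. CellTiter-Glo luminescence; IC50 from sigmoidal fit (Hill −1) or 4-parameter logistic.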

HCT116 MTAP null cells = test: HCT116 MTAP null cell line proliferation (CellTiter-Glo cell viability, 6 days); type: cell-based; details: HCT116 MTAP null cells, 6 days of treatment, CellTiter-Glo cell viability, read-out: HCT-116 MTAP null IC50
Summary of the method: as §1

| Structure (SMILES) | IC50 (HCT116 WT cells; Homo sapiens, HCT-116, 144 h) [nM] | IC50 (HCT116 MTAP null cells; HCT116-MTAP null, 144 h) [nM] | IC50 (HCT116 WT cells) [nM] | IC50 (HCT116 MTAP null cells) [nM] |
| --- | --- | --- | --- | --- |
| Nc1nc2cnc(C(=O)N3CCOC[C@@H]3c3c(F)cc(Br)cc3F)cc2c2c1COC2 (single isomer, unassigned) [Example 602] | 10000 | 149 | – | – |
| Nc1nc2ccc(C(=O)N3CCOC[C@@H]3c3ccc(CC(F)(F)F)cc3)cc2c2c1COC2 (single isomer, unassigned) [Example 603] | 10200 | 420 | – | – |
| Nc1nc2cnc(C(=O)N3CCOC[C@@H]3c3ccc(CC(F)(F)F)cc3)cc2c2c1COC2 (single isomer, unassigned) [Example 604] | 7270 | 87 | – | – |
| Cc1ccc([C@@H]2COCCN2C(=O)c2ccc3nc(N)c4c(c3c2)COC4)cn1 (single isomer, unassigned) [Example 605] | > 10000 | > 1000 | – | – |
| Cc1ccc([C@H]2COCCN2C(=O)c2ccc3nc(N)c4c(c3c2)COC4)cn1 (single isomer, unassigned) [Example 606] | > 10000 | 1030 | – | – |
| Cc1ccc([C@H]2COCCN2C(=O)c2cc3c4c(c(N)nc3cn2)COC4)cn1 (single isomer, unassigned) [Example 607] | > 10000 | > 1000 | – | – |
| Cc1ccc([C@@H]2COCCN2C(=O)c2cc3c4c(c(N)nc3cn2)COC4)cn1 (single isomer, unassigned) [Example 608] | > 10000 | > 1000 | – | – |
| Nc1nc2ccc(C(=O)N3CCOC[C@@H]3c3ccc(C(F)(F)F)nc3)cc2c2c1COC2 (single isomer, unassigned) [Example 609] | 9110 | 207 | – | – |
| Nc1nc2ccc(C(=O)N3CCOC[C@H]3c3ccc(C(F)(F)F)nc3)cc2c2c1COC2 (single isomer, unassigned) [Example 610] | > 10000 | > 1000 | – | – |
| Nc1nc2cnc(C(=O)N3CCOC[C@H]3c3cnc(C(F)(F)F)nc3)cc2c2c1COC2 (single isomer, unassigned) [Example 611] | > 10000 | > 1000 | – | – |
| Nc1nc2cnc(C(=O)N3CCOC[C@@H]3c3cnc(C(F)(F)F)nc3)cc2c2c1COC2 (single isomer, unassigned) [Example 612] | > 10000 | > 1000 | – | – |
| Nc1nc2cnc(C(=O)N3CCOC[C@@H]3c3cnc(C(F)(F)F)cn3)cc2c2c1COC2 (single isomer, unassigned) [Example 613] | > 10000 | 1830 | – | – |
| Nc1nc2cnc(C(=O)N3CCOC[C@H]3c3cnc(C(F)(F)F)cn3)cc2c2c1COC2 (single isomer, unassigned) [Example 614] | – | – | > 10000 | > 10000 |
| Nc1nc2cnc(C(=O)N3CCOC[C@@H]3c3cc(C(F)(F)F)cs3)cc2c2c1COC2 (single isomer, unassigned) [Example 615] | 3460 | 241 | – | – |
| Nc1nc2cnc(C(=O)N3CCOC[C@H]3c3ccc(C(F)(F)F)s3)cc2c2c1COC2 (single isomer, unassigned) [Example 616] | > 10000 | 3240 | – | – |
| Nc1nc2cnc(C(=O)N3CCOC[C@@H]3c3ccc(C(F)(F)F)s3)cc2c2c1COC2 (single isomer, unassigned) [Example 617] | 5730 | 228 | – | – |
| Nc1nc2cnc(C(=O)N3CCOC[C@@H]3c3cc(Cl)c(Cl)s3)cc2c2c1COC2 (single isomer, unassigned) [Example 618] | > 10000 | 300 | – | – |

| Structure (SMILES) | IC50 (HCT116 WT cells; Homo sapiens, HCT-116, 144 h) [nM] | IC50 (HCT116 MTAP null cells; HCT116-MTAP null, 144 h) [nM] | IC50 (HCT116 WT cells) [nM] | IC50 (HCT116 MTAP null cells) [nM] |
| --- | --- | --- | --- | --- |
| C[C@H]1OCc2c1c(N)nc1cnc(C(=O)N3CCOC[C@@H]3c3ccc(OC(F)(F)F)cc3)cc21 (single isomer, unassigned) [Example 619] | 1980 | 49 | – | – |
| Cn1ncc2c(N)nc3cc(F)c(C(=O)N4C[C@@H]5C[C@]5(c5ccc(C(F)(F)F)cc5)C4)cc3c21 (single isomer, unassigned) [Example 620] | 4230 | 634 | – | – |
| Cn1ncc2c(N)nc3cc(F)c(C(=O)N4C[C@H]5C[C@@]5(c5ccc(C(F)(F)F)cc5)C4)cc3c21 (single isomer, unassigned) [Example 621] | 4410 | 175 | – | – |
| Nc1nc2ccc(C(=O)N3CCOC[C@@H]3c3ncc(Br)cc3F)cc2c2c1COC2 (single isomer, unassigned) [Example 622] | 7950 | 239 | – | – |
| Nc1nc2ccc(C(=O)N3CCOCC3c3ncccn3)cc2c2c1COC2 (stereo not drawn) [Example 300, (4-amino-1,3-dihydrofuro[3,4-c]quinolin-8-yl)(3-(pyrimidin-2-yl)morpholino)methanone] | > 10000 | > 1000 | – | – |
| Nc1nc2ccc(C(=O)N3CCOC[C@@H]3c3ccc(OC(F)(F)F)cc3)cc2c2c1COC2 [Example 335, (4-amino-1,3-dihydrofuro[3,4-c]quinolin-8-yl)-[(3S)-3-[4-(trifluoromethoxy)phenyl]morpholin-4-yl]methanone] | 2690 | 91 | – | – |
| C[C@H]1OCc2c1c(N)nc1ccc(C(=O)N3CCOC[C@@H]3c3ccc(C(F)(F)C(F)(F)F)cc3)cc21 [Example 336, ((3R)-4-amino-3-methyl-1,3-dihydrofuro[3,4-c]quinolin-8-yl)((3S)-3-(4-(pentafluoroethyl)phenyl)-4-morpholinyl)methanone] | 1620 | 39 | – | – |
| Cn1ncc2c3cc(C(=O)N4CCOC[C@@H]4c4ccc(OC(F)F)cn4)ccc3nc(N)c21 [Example 369, (4-amino-3-methyl-3H-pyrazolo[3,4-c]quinolin-8-yl)((3S)-3-(5-(difluoromethoxy)-2-pyridinyl)-4-morpholinyl)methanone] | 15400 | 340 | – | – |
| C[C@@H]1COC[C@H](c2ccc(C(F)(F)F)cn2)N1C(=O)c1ccc2nc(N)c3c(cnn3C)c2c1 [Example 370, (4-amino-3-methyl-3H-pyrazolo[3,4-c]quinolin-8-yl)((3R,5S)-3-methyl-5-(5-(trifluoromethyl)-2-pyridinyl)-4-morpholinyl)methanone] | 2020 | 30 | – | – |
| Cn1ncc2c(N)nc3cnc(C(=O)N4CCOC[C@@H]4c4ccc(C(F)(F)F)cc4)cc3c21 [Example 371, (4-amino-1-methyl-1H-pyrazolo[4,3-c][1,7]naphthyridin-8-yl)((3S)-3-(4-(trifluoromethyl)phenyl)-4-morpholinyl)methanone] | 707 | 22 | – | – |
| CC1(C)OCc2c1c(N)nc1ccc(C(=O)N3CCOC[C@@H]3c3ccc(OC(F)(F)F)cc3)cc21 [Example 382, (4-amino-3,3-dimethyl-1H-furo[3,4-c]quinolin-8-yl)-[(3S)-3-[4-(trifluoromethoxy)phenyl]morpholin-4-yl]methanone] | > 10000 | 786 | – | – |
| Nc1nc2cnc(C(=O)N3CCOC[C@@H]3c3ccc(OC(F)F)nc3)cc2c2c1COC2.Nc1nc2cnc(C(=O)N3CCOC[C@H]3c3ccc(OC(F)F)nc3)cc2c2c1COC2 [Example 394, (4-amino-1,3-dihydrofuro[3,4-c][1,7]naphthyridin-8-yl)((3R)-3-(6-(difluoromethoxy)-3-pyridinyl)-4-morpholinyl)methanone (4-amino-1,3-dihydrofuro[3,4-c][1,7]naphthyridin-8-yl)((3S)-3-(6-(difluoromethoxy)-3-pyridinyl)-4-morpholinyl)methanone] | – | – | 36400 | 624 |
| C[C@H]1OCc2c1c(N)nc1ccc(C(=O)N3CC(c4ccccc4)C4CCCC43)cc21 (stereo partly drawn) [Example 395, ((3R)-4-amino-3-methyl-1,3-dihydrofuro[3,4-c]quinolin-8-yl)(3-phenylhexahydrocyclopenta[b]pyrrol-1(2H)-yl)methanone] | 8240 | 303 | – | – |
| C[C@H]1OCc2c1c(N)nc1ccc(C(=O)N3CC(c4ccc(Cl)cc4)CC3C3CC3)cc21 (stereo partly drawn) [Example 396, ((3R)-4-amino-3-methyl-1,3-dihydrofuro[3,4-c]quinolin-8-yl)(4-(4-chlorophenyl)-2-cyclopropylpyrrolidin-1-yl)methanone] | 13300 | 866 | – | – |
| C[C@H]1OCc2c1c(N)nc1ccc(C(=O)N3CC(c4ccccc4)C4COCCC43)cc21 (stereo partly drawn) [Example 397, ((3R)-4-amino-3-methyl-1,3-dihydrofuro[3,4-c]quinolin-8-yl)(3-phenylhexahydropyrano[4,3-b]pyrrol-1(4H)-yl)methanone] | 32000 | 380 | – | – |
| C[C@H]1OCc2c1c(N)nc1ccc(C(=O)N3C[C@H](c4ccc(Cl)cc4)C[C@H]3C3CC3)cc21 [Example 398, ((3R)-4-amino-3-methyl-1,3-dihydrofuro[3,4-c]quinolin-8-yl)((2S,4S)-4-(4-chlorophenyl)-2-cyclopropyl-1-pyrrolidinyl)methanone] | 13200 | 609 | – | – |
